pIC50: −log10 of the molar value.
These molecules were tested against recombinant human GST-Syk (Homo sapiens (Human), UniProt P43405) (assay: Homogeneous Time-Resolved Fluorescence (HTRF) assay for the recombinant human Syk enzyme). Conditions: recombinant human GST-Syk 5 pM, ATP 25 μM, 10-dose titration; read-out: rhSyk (nM) IC50.
Assay type: biochemical
Experimental: Homogeneous Time-Resolved Fluorescence (HTRF) Assay for the Recombinant Human Syk Enzyme:
A recombinant GST-hSyk fusion protein was used to measure potency of compounds to inhibit human Syk activity. The recombinant human GST-Syk ([…] #08-176) (5 pM final concentration) was incubated with various concentrations of the inhibitor diluted in DMSO (0.1% final concentration) for 10 minutes at room temperature in 15 mM Tris-HCl (pH 7.5), 0.01% tween 20, 2 mM DTT in 384 well plate format. To initiate the reaction the biotinylated substrate peptide (250 nM final concentration) that contains the phosphorylation site for Syk was added with magnesium (5 mM final concentration) and ATP (25 μM final concentration). Final volume of the reaction was 10 μL. Phosphorylation of the peptide was allowed to proceed for 45 minutes at room temperature. To quench the reaction and detect the phosphorylated product, 2 nM of a Europium-anti-phosphotyrosine antibody (Perkin Elmer #AD0161) and 70 nM SA-APC (Perkin-Elmer #CR130-100) were added together in 15 mM Tris pH 7.5, 40 mM EDTA, 0.01% tween 20. Final volume of the quenching solution was 10 μL. The resulting HTRF signal was measured after 30 minutes on an EnVision (Perkin-Elmer) reader using a time-resolved fluorescence protocol.

IC50	Structure (SMILES)
3.1 nM	CCC(O)(c1ncc(-c2cc(C)cc(Nc3cc(C4CC4)ccn3)n2)s1)[C@H]1CC[C@H](C(N)=O)CC1 (mixture of isomers) [Example 2, racemic mixture, trans-4-[1-(5-{6-[(4-cyclopropylpyridin-2-yl)amino]-4-methylpyridin-2-yl}-1,3-thiazol-2-yl)-1-hydroxypropyl]cyclohexanecarboxamide]

Same assay, conditions: recombinant human GST-Syk 5 pM, ATP 25 μM; class symbols; read-out: rhSyk activity (IC50)

Structure (SMILES)	pIC50
Cc1cc(Nc2cc(C)c(Cl)cn2)nc(-c2cnc(C(C)(O)[C@H]3CC[C@H](C(=O)O)CC3)s2)c1 (relative stereo) [Example 14-5, trans-4-[1-(5-{6-[(5-chloro-4-methylpyridin-2-yl)amino]-4-methylpyridin-2-yl}-1,3-thiazol-2-yl)-1-hydroxyethyl]cyclohexanecarboxylic acid]	≥ 7.00
Cc1cc(Nc2cc(C(C)C)ccn2)nc(-c2cnc(C(C)(O)[C@H]3CC[C@H](C(=O)O)CC3)s2)c1 (relative stereo) [Example 14-8, trans-4-{1-hydroxy-1-[5-(4-methyl-6-{[4-(propan-2-yl)pyridin-2-yl]amino}pyridin-2-yl)-1,3-thiazol-2-yl]ethyl}cyclohexanecarboxylic acid]	≥ 7.00
COC(=O)[C@H]1CC[C@H](C(O)c2ncc(-c3cc(C)cc(Nc4cc(C(F)(F)F)ccn4)n3)s2)CC1 (relative stereo) [Example 14-27, methyl trans-4-{hydroxy[5-(4-methyl-6-{[4-(trifluoromethyl)pyridin-2-yl]amino}pyridin-2-yl)-1,3-thiazol-2-yl]methyl}cyclohexanecarboxylate]	≥ 7.00
COc1ccnc(Nc2cccc(-c3cnc(C(C)(O)[C@H]4CC[C@H](C(=O)O)CC4)s3)n2)c1 (relative stereo) [Example 14-41, trans-4-[1-hydroxy-1-(5-{6-[(4-methoxypyridin-2-yl)amino]pyridin-2-yl}-1,3-thiazol-2-yl)ethyl]cyclohexanecarboxylic acid]	≥ 7.00

More lines, now with the values ahead:

pIC50	Structure (SMILES)
≥ 7.00	CCC(O)(c1ncc(-c2cc(C)cc(Nc3cc(C4CC4)ccn3)n2)s1)[C@H]1CC[C@H](C(=O)O)CC1 (mixture of isomers) [Example 1, racemic, trans-4-[1-(5-{6-[(4-Cyclopropylpyridin-2-yl)amino]-4-methylpyridin-2-yl}-1,3-thiazol-2-yl)-1-hydroxypropyl]cyclohexanecarboxylic acid]
≥ 7.00	CCC(O)(c1ncc(-c2cc(C)cc(Nc3cc(C4CC4)ccn3)n2)s1)[C@H]1CC[C@H](C(N)=O)CC1 (mixture of isomers) [Example 2, racemic mixture, trans-4-[1-(5-{6-[(4-cyclopropylpyridin-2-yl)amino]-4-methylpyridin-2-yl}-1,3-thiazol-2-yl)-1-hydroxypropyl]cyclohexanecarboxamide]
≥ 7.00	Cc1ccnc(Nc2cc(C)cc(-c3cnc(C(C)(O)[C@H]4CC[C@H](C(=O)O)CC4)s3)n2)c1 (relative stereo) [Example 14-1, trans-4-[1-hydroxy-1-(5-{4-methyl-6-[(4-methylpyridin-2-yl)amino]pyridin-2-yl}-1,3-thiazol-2-yl)ethyl]cyclohexanecarboxylic acid]
≥ 7.00	COc1ccnc(Nc2cc(C)cc(-c3cnc(C(C)(O)[C@H]4CC[C@H](C(=O)O)CC4)s3)n2)c1 (relative stereo) [Example 14-3, trans-4-[1-hydroxy-1-(5-{6-[(4-methoxypyridin-2-yl)amino]-4-methylpyridin-2-yl}-1,3-thiazol-2-yl)ethyl]cyclohexanecarboxylic acid]
6.00 to 7.00	CCCCOC(=O)[C@H]1CC[C@H](C(C)(O)c2ncc(-c3cc(C)cc(Nc4cc(C5CC5)ccn4)n3)s2)CC1 (relative stereo) [Example 14-6, butyl trans-4-[1-(5-{6-[(4-cyclopropylpyridin-2-yl)amino]-4-methylpyridin-2-yl}-1,3-thiazol-2-yl)-1-hydroxyethyl]cyclohexanecarboxylate]
≥ 7.00	Cc1cc(Nc2cc(C3CC3)ccn2)nc(-c2cnc(C(C)(O)[C@H]3CC[C@H](C(=O)O)CC3)s2)c1 (relative stereo) [Example 14-7, trans-4-[1-(5-{6-[(4-cyclopropylpyridin-2-yl)amino]-4-methylpyridin-2-yl}-1,3-thiazol-2-yl)-1-hydroxyethyl]cyclohexanecarboxylic acid]

Reference: patent US9120785B2, “Pyridyl aminopyridines as Syk inhibitors” (Merck Sharp & Dohme Corp., priority 2011, dated 2015)
